The values below come from ChEMBL document CHEMBL6127144, “Optimization of a Piperidine CD4-Mimetic Scaffold Sensitizing HIV-1 Infected Cells to Antibody-Dependent Cellular Cytotoxicity” (ACS Med Chem Lett, 2024).

Calls of active or inactive are those of the source. The rule behind the calls is not given here.

The first test has as its system CD4+ T cell. Put plainly: Binding affinity to 17b Antibody in HIV-1 JRFL infected human primary CD4+ T cell by measuring median fluorescence intensity at 50 uM incubated for 48 hrs by Alexa Fluor 647 staining based flow cytometric analysis.
Conditions: not given
In general terms: In flow cytometry, cells or beads pass a laser one at a time.
Take `N[C@@H](Cc1ccc(O)cc1)C(=O)N1CCN(C(=O)N2CCC[C@H](C(=O)Nc3ccc(Cl)c(F)c3)C2)CC1`: the Flu intensity was found to be 2.19.

Compound `O=C(Nc1ccc(Cl)c(F)c1)[C@H]1CCCN(C(=O)N2CCC[C@H]2CO)C1` had a Flu intensity of 1.11.

Compound `O=C(Nc1ccc(Cl)c(F)c1)[C@H]1CCCN(C(=O)N2CCCCC2)C1` registered a Flu intensity of 0.96.

Turning to `O=C(Nc1ccc(Cl)c(F)c1)[C@H]1CCCN(C(=O)c2c[nH]cn2)C1`, the Flu intensity stood at 0.93.

As to `C[C@H](N)C(=O)N1CCN(C(=O)N2CCC[C@H](C(=O)Nc3ccc(Cl)c(F)c3)C2)CC1`, the Flu intensity came to 2.02.

The compound `O=C(Nc1ccc(Cl)c(F)c1)[C@H]1CCCN(C(=O)N(CCO)CCO)C1` gave a Flu intensity of 1.04.

Regarding `C[C@@H](O)[C@H](N)C(=O)N1CCN(C(=O)N2CCC[C@H](C(=O)Nc3ccc(Cl)c(F)c3)C2)CC1`, the Flu intensity result was “inactive”.

`CN1CCN(C(=O)N2CCC[C@H](C(=O)Nc3ccc(Cl)c(F)c3)C2)CC1` displayed a Flu intensity of 1.14.

The subject of the next test is Human immunodeficiency virus 1. Put plainly: Antiviral activity against HIV-1 AD8 infected in human TZM-bl cells assessed as inhibition of viral growth incubated for 48 hrs by luminometer based neutralization assay. It counts as functional, organism-based. The following applies: Human immunodeficiency virus 1, AD8, TZM-bl.
Consider `N=C(N)NCC(=O)N1CCN(C(=O)N2C[C@H](CO)C[C@H](C(=O)Nc3ccc(Cl)c(F)c3)C2)CC1`, for which the IC50 turned out to be 38.6 µM.

Consider `N[C@@H](Cc1ccc(O)cc1)C(=O)N1CCN(C(=O)N2CCC[C@H](C(=O)Nc3ccc(Cl)c(F)c3)C2)CC1`, for which the IC50 turned out to be 2.18 µM.

For the compound `N=C(N)N1CCC[C@@H]1C(=O)N1CCN(C(=O)N2C[C@H](CO)C[C@H](C(=O)Nc3ccc(Cl)c(F)c3)C2)CC1`, the concentration for half-maximal inhibition (IC50) is greater than 100 µM.

Turning to `C[C@H](N)C(=O)N1CCN(C(=O)N2CCC[C@H](C(=O)Nc3ccc(Cl)c(F)c3)C2)CC1`, the IC50 turned out to be 1.83 µM.

For `C[C@@H](O)[C@H](N)C(=O)N1CCN(C(=O)N2CCC[C@H](C(=O)Nc3ccc(Cl)c(F)c3)C2)CC1`, the IC50 turned out to be 1.55 µM.

In the next test the test system is CD4+ T cell. Put plainly: Binding affinity to 17b Antibody in HIV-1 AD8 infected human primary CD4+ T cell at 50 uM incubated for 48 hrs by Alexa Fluor 647 staining based flow cytometric analysis.
Conditions: not given
On to `O=C(Nc1ccc(Cl)c(F)c1)[C@H]1CCCN(C(=O)N2CCN(c3ncccn3)CC2)C1`, for which the outcome was inactive.

As for `O=C(Nc1ccc(Cl)c(F)c1)[C@H]1CCCN(C(=O)N2CCN(c3ccccc3)CC2)C1`, the result was inactive.

In the case of `O=C(Nc1ccc(Cl)c(F)c1)[C@H]1CCCN(C(=O)N2CCN(c3cccc(C(F)(F)F)c3)CC2)C1`, the outcome was inactive.

For the compound `O=C(Nc1ccc(Cl)c(F)c1)[C@H]1CCCN(C(=O)N2CCN(c3ccccn3)CC2)C1`, the outcome was inactive.

The test system of another test is Human immunodeficiency virus 1. Put plainly: Antiviral activity against HIV-1 JRFL infected in human TZM-bl cells assessed as inhibition of viral growth incubated for 48 hrs by luminometer based neutralization assay. The format is functional, organism-based. The settings on record: Human immunodeficiency virus 1, JRFL.
As to `N[C@@H](Cc1ccc(O)cc1)C(=O)N1CCN(C(=O)N2CCC[C@H](C(=O)Nc3ccc(Cl)c(F)c3)C2)CC1`, the half-inhibitory concentration (IC50) stood at 28 µM.

As to `C[C@H](N)C(=O)N1CCN(C(=O)N2CCC[C@H](C(=O)Nc3ccc(Cl)c(F)c3)C2)CC1`, the IC50 worked out at 5.62 µM.

As to `C[C@@H](O)[C@H](N)C(=O)N1CCN(C(=O)N2CCC[C@H](C(=O)Nc3ccc(Cl)c(F)c3)C2)CC1`, the half-maximal inhibitory concentration (IC50) came to 13.7 µM.

A further test concerns CD4+ T cell. Put plainly: Binding affinity to 17b Antibody in HIV-1 JRFL infected human primary CD4+ T cell at 50 uM incubated for 48 hrs by Alexa Fluor 647 staining based flow cytometric analysis.
Conditions: not given
As for `O=C(Nc1ccc(Cl)c(F)c1)[C@H]1CCCN(C(=O)N2CCN(c3ncccn3)CC2)C1`, the result was inactive.

Consider `O=C(Nc1ccc(Cl)c(F)c1)[C@H]1CCCN(C(=O)N2CCN(c3ccccc3)CC2)C1`, for which the outcome was inactive.

`O=C(Nc1ccc(Cl)c(F)c1)[C@H]1CCCN(C(=O)N2CCN(c3cccc(C(F)(F)F)c3)CC2)C1`: the outcome was inactive.

In the case of `O=C(Nc1ccc(Cl)c(F)c1)[C@H]1CCCN(C(=O)N2CCN(c3ccccn3)CC2)C1`, the outcome was inactive.

In a further test the test system is CD4+ T cell. Put plainly: Binding affinity to 17b Antibody in HIV-1 AD8 infected human primary CD4+ T cell by measuring median fluorescence intensity at 50 uM incubated for 48 hrs by Alexa Fluor 647 staining based flow cytometric analysis.
Conditions: not given
`N[C@@H](Cc1ccc(O)cc1)C(=O)N1CCN(C(=O)N2CCC[C@H](C(=O)Nc3ccc(Cl)c(F)c3)C2)CC1` showed a Flu intensity of 2.48.

On to `O=C(Nc1ccc(Cl)c(F)c1)[C@H]1CCCN(C(=O)N2CCC[C@H]2CO)C1`, for which the Flu intensity was determined as 1.26.

`O=C(Nc1ccc(Cl)c(F)c1)[C@H]1CCCN(C(=O)N2CCCCC2)C1` registered a Flu intensity of 1.19.

Regarding `O=C(Nc1ccc(Cl)c(F)c1)[C@H]1CCCN(C(=O)c2c[nH]cn2)C1`, the Flu intensity turned out to be 1.07.

`C[C@H](N)C(=O)N1CCN(C(=O)N2CCC[C@H](C(=O)Nc3ccc(Cl)c(F)c3)C2)CC1` yielded a Flu intensity of 2.53.

`O=C(Nc1ccc(Cl)c(F)c1)[C@H]1CCCN(C(=O)N(CCO)CCO)C1` registered a Flu intensity of 1.27.

In the case of `C[C@@H](O)[C@H](N)C(=O)N1CCN(C(=O)N2CCC[C@H](C(=O)Nc3ccc(Cl)c(F)c3)C2)CC1`, the Flu intensity result is “inactive”.

Consider `CN1CCN(C(=O)N2CCC[C@H](C(=O)Nc3ccc(Cl)c(F)c3)C2)CC1`, for which the Flu intensity turned out to be 1.5.

One may read the IC50 as the concentration at which inhibition is half-maximal.
